Data published in patent publication EP3260120B1, “PHARMACOLOGICAL ADJUVANTS FOR THERMAL ABLATION OF CANCER” (Blasi, Paolo, priority 2016, dated 2017).

Tested on: human colon adenocarcinoma HT-29 cell line
Experiment: thermosensitizing or killing effect on HT-29 cells (cell count, ethidium bromide / fluorescein diacetate viability)
Assay type: cell-based
Settings: for Viability (%) / Total cells (x10^6) / Living cells (x10^6): mean ± S.D.; for Living cells (x10^6): viability % applied to total cells
Method: The thermosensitizing or killing effect of omeprazole in acidic solution and that of liposome formulations was tested on human colon adenocarcinoma HT-29 cell line (Istituto Zooprofilattico Ubertini, Brescia, Italy). The cells were incubated under standard conditions: 5% CO2, 37°C, in McCOY'S 5A medium (Sigma-Aldrich, Milan, Italy) at pH 7.4 with sodium bicarbonate, antibiotics and antifungals (penicillin 100 U/mL, streptomycin 100 U/mL, amphotericin B 0.25 µg/mL) and 10% foetal bovine serum. A trypsin solution with EDTA was employed to detach the cells from the culture plates. The experimental protocol is reported in the following scheme: [formula] In detail: • 1)-HT-29 cells were seeded in 6-well culture plates (Falcon) with a 10 cm^2 area at a 250,000 cell/well concentration and 5 mL medium as indicated above. • 2)-After 72 h plating, the culture medium, with initial buffered pH=7.4, was replaced with unbuffered medium (without sodium bicarbonate), and 12 wells were maintained at 37°C, while 12 wells were destined for thermal treatment. In each group, three wells were treated with omeprazole in acidic solution, three with LUVs with acidic core and three with LUVs loaded with omeprazole in acidic solution, according to the concentrations reported in the previous scheme. […] At the end of the thermal treatment the cells were brought back into the incubator at 37°C. • 4)-After 24 h, the following parameters were evaluated for all the wells: Total number of cells (living and dead). After detachment of the cell monolayer with trypsin and EDTA, the total number of cells (living + dead) in each well was determined using a Countess cell counting machine (Invitrogen, Milan, Italy). Cell viability (%). Cell viability was evaluated by incubation of a detached cell suspension with ethidium bromide and fluorescein diacetate (Sigma-Aldrich, Milan, Italy). The cells were analysed with a fluorescent optical microscope (Olympus BX-41, Tokyo, Japan) using the filter for fluorescein. The images were recorded with an F-view digital camera (Olympus) and processed with F-view software (Olympus). With this method, the living cells are stained green and the dead cells red, as fluorescein diacetate is internalized by living cells and hydrolysed by cytoplasm esterases into the corresponding fluorochrome, fluorescein, which emits an intense green fluorescence, whereas ethidium bromide only penetrates cells with altered membranes, binding to nucleic acids and producing a red fluorescence. The living and dead cells were counted by a semi-manual method. A minimum of three images per well were acquired in distinct areas, representative of the corresponding cell suspension. For the group maintained at 37°C, an average of 2,500 cells was counted for each treatment type (constituted by three wells representing the single treatment performed in triplicate). Since the number of cells decreases noticeably for the wells treated at 45°C for 2 h, the number of recorded images was increased (from 9 to 16), and 2,700 to 3,500 cells were counted for each treatment type (constituted by three wells representing the single treatment performed in triplicate). Living cell (green) and dead cell (red) counts were acquired by marking each cell and recording the resulting cell number with Image J software. The percentage viability of the cells counted for each sample was calculated as follows: Viability(%) = (No. of living cells)/(No. of living cells + No. of dead cells)⋅100 [formula] Total number of living cells. The endpoint of the study was the total number of tumour cells surviving the different treatments. This value was calculated for each well by applying the viability percentage obtained by semi-manual counting to the total number of cells measured by the cell-counting machine. Statistical analysis. The data were subjected to statistical analysis with the paired Student's t-test and one-way ANOVA (SigmaPlot 12.0, Systat Software Inc.) with a 95% significance level. […]

[1] = 37°C, 48 h incubation with treatment
[2] = 45°C for 2h after 24 h pre-incubation, evaluated 24 h after thermal treatment

Q: Which results are given for COc1ccc2[nH]c([S+]([O-])Cc3ncc(C)c(OC)c3C)nc2c1 (centres unmarked) [B, omeprazole]?
A: Viability (%) [1]: 83.3 ± 2.4%; decrease in number of surviving tumour cells versus untreated control (37°C, 48 h of incubation): 25%; Total cells (x10^6) (37°C, living and dead cells per well, 48 h incubation with treatment): 1.83 ± 0.25 x10^6; Living cells (x10^6) [1]: 1.53 ± 0.22 x10^6; reduction in number of living cells compared to heating only (45°C for 2 h, 24 h after heat shock): 41%; Total cells (x10^6) [2]: 0.66 ± 0.27 x10^6; Viability (%) [2]: 61.5 ± 4.4%; Living cells (x10^6) [2]: 0.40 ± 0.10 x10^6
